Where only a bound is given, the exact number is not on record here.

The experiment addresses T1, Ubiquitin carboxyl-terminal hydrolase isozyme L1 (Mus musculus, UniProt Q9R0P9).
T1 sequence (Q9R0P9 whole entry): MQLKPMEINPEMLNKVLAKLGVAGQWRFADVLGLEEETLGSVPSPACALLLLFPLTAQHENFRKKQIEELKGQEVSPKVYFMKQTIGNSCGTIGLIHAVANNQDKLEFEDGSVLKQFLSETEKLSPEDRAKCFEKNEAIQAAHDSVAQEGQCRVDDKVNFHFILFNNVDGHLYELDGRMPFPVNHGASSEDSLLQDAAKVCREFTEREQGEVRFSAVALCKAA
The experiment in a line: Inhibition Activity Assay. Particulars: pH 7.6; 25 °C. An excerpt: Inhibition activity and selectivity for UCH-L1 and UCH-L3.
For `COc1cccc(CN=Nc2cc(N3CCOCC3)ncn2)c1O` [(6E)-2-methoxy-6-[[N'-(6-morpholinopyrimidin-4-yl)hydrazino]methylene]cyclohexa-2,4-dien-1-one], the IC50 (in general, the concentration that inhibits the measured activity by half) amounted to 6.1 µM.

The compound `O[C@@H]1CCCN2CCc3c([nH]c4ccccc34)[C@H]12` [MLS000728593] showed an IC50 of 3.4 µM.

On to `COc1ccc(N=Nc2cc(-c3ccccc3)ccc2O)cc1`, for which inhibition was half-maximal at 12 µM (IC50).

`COc1cccc(NC(=O)Nc2nc(SC(C)(C)C)ns2)c1` [1-(3-tert-butylsulfanyl-1,2,4-thiadiazol-5-yl)-3-(3-methoxyphenyl)urea] came in with an IC50 of 16 µM.

`Cc1ccc(OCCn2c(S)nc3ccccc32)c(C(C)C)c1` [SMR000515074]: the IC50 came out at 19 µM.

As for `Clc1cccc(Cl)c1C1Nc2cccc3cccc(c23)N1` [SMR000515760], inhibition was half-maximal at 4.1 µM (IC50).

On to `Cc1nc(N=NCc2ccc3c(c2)OCO3)sc1C` [(4,5-dimethylthiazol-2-yl)-(piperonylideneamino)amine], for which the IC50 came to 5.8 µM.

`CCCCn1c(=O)c(C(=O)NCc2ccccc2)c(O)c2ccccc21` returned an IC50 of 6.1 µM.

`COc1ccc(Nc2nc(NN)nc(Nc3ccc(OC)cc3)n2)cc1` [MLS001185433] yielded an IC50 of over 100 µM.

`COc1cccc(C(=O)Oc2ccc(CN=Nc3ccc(C(=O)O)cc3)cc2OC)c1` [SMR000502791] showed an IC50 of 21 µM.

Compound `Brc1cc(-c2ccccc2)nc(-c2ccccc2)n1` [4-bromo-2,6-diphenyl-pyrimidine] had an IC50 of 13 µM.

`NC(=S)NN=Cc1ccc(C23CC4CC(CC(C4)C2)C3)cc1` [1-[[4-(1-adamantyl)phenyl]methylideneamino]thiourea] registered an IC50 of 52 µM.

`Cc1ccc(OCCCCc2c(C)n[nH]c2C)cc1` [MLS001001654] had an IC50 of 1.3 µM.

`CC(C)c1ccc(C=Nn2c(-c3ccccc3)n[nH]c2=S)cc1` [4-[(4-Isopropyl-benzylidene)-amino]-5-phenyl-4H-[1,2,4]triazole-3-thiol] showed an IC50 of 13 µM.

`O=C1C=CC([N+](=O)[O-])=CC1/C=N/NC(=O)C(O)(c1ccccc1)c1ccccc1` (configuration not stated) showed a 50% inhibitory concentration (IC50) of 9.5 µM.

With `Cc1c(Cl)cccc1-c1ccc(CNCc2ccccn2)o1` [[5-(3-Chloro-2-methyl-phenyl)-furan-2-ylmethyl]-pyridin-2-ylmethyl-amine], the IC50 was over 100 µM.

The compound `COc1cc(OC)c([C@H]2C=C(C)[C@H]3C[C@@H]2C3(C)C)c(OC)c1` [SMR000475707] returned a half-inhibitory concentration (IC50) of 80 µM.

Compound `COc1ccc(CC2=CC(=O)c3ccccc3C2=O)cc1` [MLS001163415] showed an IC50 of 114 µM.

On to `Cc1cccc(C(=O)Nc2scc(-c3ccc(Br)cc3)c2C(=O)O)c1` [4-(4-bromophenyl)-2-[(3-methylphenyl)carbonylamino]thiophene-3-carboxylic acid], for which the IC50 is 6.2 µM.

For the compound `Cc1ccc(C(=O)NC(=S)NNC(=O)c2cccc([N+](=O)[O-])c2)cc1`, the half-maximal inhibitory concentration (IC50) is 36 µM.

On to `CC(C)NC(=S)NC(c1ccccc1)(c1ccccc1)c1ccccc1` [MLS001008525], for which the 50% inhibitory concentration (IC50) was determined as 2.7 µM.

Compound `COc1cc(/C=C2/SC(=S)N(Cc3ccccc3)C2=O)ccc1O` [MLS001211321] came in with a half-maximal inhibitory concentration (IC50) of 18 µM.

On to `CC1Oc2cc3oc4c(O)c(O)ccc4c(=O)c3c(O)c2C1(C)C` (configuration not stated) [toxyloxanthone C], for which the IC50 is 3.4 µM.

For the compound `O=C1C([N+](=O)[O-])=CC(Cl)=CC1/C=N/NC(=O)C(O)(c1ccccc1)c1ccccc1` (configuration not stated) [N''''-[(E)-(3-chloro-5-nitro-6-oxocyclohexa-2,4-dien-1-ylidene)methyl]-2-hydroxy-2,2-diphenylacetohydrazide], the IC50 was found to be 16 µM.

The compound `CN1CCN(C2Cc3ccc(Cl)cc3Sc3ccc(F)cc32)CC1` (configuration not stated) gave an IC50 of 321 µM.

For `COc1cc(C)c(C(=O)CC(=O)c2c(C)cc(OC)cc2C)c(C)c1` [SMR000475659], the IC50 worked out at 45 µM.

In turn, `O=C(NC12CC3CC(CC(C3)C1)C2)c1ccc([N+](=O)[O-])o1` [N-(1-adamantyl)-5-nitrofuran-2-carboxamide] gave a 50% inhibitory concentration (IC50) of 6.5 µM.

The values are drawn from BindingDB's records for doi:10.1016/j.chembiol.2003.08.010 (Brigham and Women's Hospital, 2003).
